Reference: ChEMBL document CHEMBL3994622, “Design and synthesis of new RAF kinase-inhibiting antiproliferative quinoline derivatives. Part 2: Diarylurea derivatives” (Eur J Med Chem, 2017)

Legend:
Assay type in all cases: functional
M14 = assay: Growth inhibition of human M14 cells assessed as cell growth at 1 uM incubated for 48 hrs by sulforhodamine B assay relative to control; settings: M14, 48 h, read-out: Activity
NCI-H460 [1] = assay: Growth inhibition of human NCI-H460 cells assessed as cell growth at 0.01 uM incubated for 48 hrs by sulforhodamine B assay relative to control; settings: NCI-H460, 48 h, read-out: Activity
HOP-92 = assay: Growth inhibition of human HOP92 cells assessed as cell growth at 0.1 uM incubated for 48 hrs by sulforhodamine B assay relative to control; settings: HOP-92, 48 h, read-out: Activity
SK-OV-3 = assay: Growth inhibition of human SKOV3 cells assessed as cell growth at 0.01 uM incubated for 48 hrs by sulforhodamine B assay relative to control; settings: SK-OV-3, 48 h, read-out: Activity
NCI-H460 [2] = assay: Growth inhibition of human NCI-H460 cells assessed as cell growth at 1 uM incubated for 48 hrs by sulforhodamine B assay relative to control; settings: NCI-H460, 48 h, read-out: Activity
OVCAR-8 = assay: Growth inhibition of human OVCAR8 cells assessed as cell growth at 100 uM incubated for 48 hrs by sulforhodamine B assay relative to control; settings: OVCAR-8, 48 h, read-out: Activity
HL-60(TB) = assay: Growth inhibition of human HL-60(TB) cells assessed as cell growth at 100 uM incubated for 48 hrs by sulforhodamine B assay relative to control; settings: HL-60, 48 h, read-out: Activity
SNB-75 = assay: Growth inhibition of human SNB75 cells assessed as cell growth at 1 uM incubated for 48 hrs by sulforhodamine B assay relative to control; settings: SNB-75, 48 h, read-out: Activity
RXF 393 = assay: Growth inhibition of human RXF393 cells assessed as cell growth at 10 uM incubated for 48 hrs by sulforhodamine B assay relative to control; settings: RXF 393, 48 h, read-out: Activity
NCI-H226 [3] = assay: Growth inhibition of human NCI-H226 cells assessed as cell growth at 1 uM incubated for 48 hrs by sulforhodamine B assay relative to control; settings: NCI-H226, 48 h, read-out: Activity
MOLT-4 = assay: Growth inhibition of human MOLT4 cells assessed as cell growth at 1 uM incubated for 48 hrs by sulforhodamine B assay relative to control; settings: MOLT-4, 48 h, read-out: Activity
HCT-15 = assay: Growth inhibition of human HCT15 cells assessed as cell growth at 10 uM incubated for 48 hrs by sulforhodamine B assay relative to control; settings: HCT-15, 48 h, read-out: Activity
SK-MEL-2 = assay: Growth inhibition of human SK-MEL-2 cells assessed as cell growth at 10 uM incubated for 48 hrs by sulforhodamine B assay relative to control; settings: SK-MEL-2, 48 h, read-out: Activity
SF-539 [4] = assay: Growth inhibition of human SF539 cells assessed as cell growth at 0.01 uM incubated for 48 hrs by sulforhodamine B assay relative to control; settings: SF-539, 48 h, read-out: Activity
LOX IMVI = assay: Growth inhibition of human LOXIMVI cells assessed as cell growth at 10 uM incubated for 48 hrs by sulforhodamine B assay relative to control; settings: read-out: Activity
UACC-62 [5] = assay: Growth inhibition of human UACC62 cells assessed as cell growth at 0.01 uM incubated for 48 hrs by sulforhodamine B assay relative to control; settings: UACC-62, 48 h, read-out: Activity
SF-539 [6] = assay: Growth inhibition of human SF539 cells assessed as cell growth at 30 uM incubated for 48 hrs by sulforhodamine B assay relative to control; settings: SF-539, 48 h, read-out: Activity
T47D = assay: Growth inhibition of human T47D cells assessed as cell growth at 30 uM incubated for 48 hrs by sulforhodamine B assay relative to control; settings: read-out: Activity
UO-31 = assay: Growth inhibition of human UO31 cells assessed as cell growth at 0.3 uM incubated for 48 hrs by sulforhodamine B assay relative to control; settings: UO-31, 48 h, read-out: Activity
NCI/ADR-RES = assay: Growth inhibition of human NCI/ADR-RES cells assessed as cell growth at 3 uM incubated for 48 hrs by sulforhodamine B assay relative to control; settings: read-out: Activity
UACC-257 = assay: Growth inhibition of human UACC257 cells assessed as cell growth at 0.3 uM incubated for 48 hrs by sulforhodamine B assay relative to control; settings: UACC-257, 48 h, read-out: Activity
HOP-62 [7] = assay: Growth inhibition of human HOP62 cells assessed as cell growth at 0.003 uM incubated for 48 hrs by sulforhodamine B assay relative to control; settings: HOP-62, 48 h, read-out: Activity
TK-10 = assay: Growth inhibition of human TK10 cells assessed as cell growth at 0.03 uM incubated for 48 hrs by sulforhodamine B assay relative to control; settings: TK-10, 48 h, read-out: Activity
MDA-MB-435 = assay: Growth inhibition of human MDA-MB-435 cells assessed as cell growth at 0.3 uM incubated for 48 hrs by sulforhodamine B assay relative to control; settings: MDA-MB-435, 48 h, read-out: Activity
COLO 205 = assay: Growth inhibition of human COLO205 cells assessed as cell growth at 30 uM incubated for 48 hrs by sulforhodamine B assay relative to control; settings: COLO 205, 48 h, read-out: Activity
OVCAR-4 = assay: Growth inhibition of human OVCAR4 cells assessed as cell growth at 0.3 uM incubated for 48 hrs by sulforhodamine B assay relative to control; settings: OVCAR-4, 48 h, read-out: Activity
SR = assay: Growth inhibition of human SR cells assessed as cell growth at 0.03 uM incubated for 48 hrs by sulforhodamine B assay relative to control; settings: read-out: Activity
NCI-H226 [8] = assay: Growth inhibition of human NCI-H226 cells assessed as cell growth at 3 uM incubated for 48 hrs by sulforhodamine B assay relative to control; settings: NCI-H226, 48 h, read-out: Activity
HOP-62 [9] = assay: Growth inhibition of human HOP62 cells assessed as cell growth at 0.03 uM incubated for 48 hrs by sulforhodamine B assay relative to control; settings: HOP-62, 48 h, read-out: Activity
SNB-19 = assay: Growth inhibition of human SNB19 cells assessed as cell growth at 0.3 uM incubated for 48 hrs by sulforhodamine B assay relative to control; settings: SNB-19, 48 h, read-out: Activity
UACC-62 [10] = assay: Growth inhibition of human UACC62 cells assessed as cell growth at 3 uM incubated for 48 hrs by sulforhodamine B assay relative to control; settings: UACC-62, 48 h, read-out: Activity
SF-295 = assay: Growth inhibition of human SF295 cells assessed as cell growth at 3 uM incubated for 48 hrs by sulforhodamine B assay relative to control; settings: SF-295, 48 h, read-out: Activity
HT-29 = assay: Growth inhibition of human HT-29 cells assessed as cell growth at 0.003 uM incubated for 48 hrs by sulforhodamine B assay relative to control; settings: HT-29, 48 h, read-out: Activity
IGROV-1 = assay: Growth inhibition of human IGROV1 cells assessed as cell growth at 0.003 uM incubated for 48 hrs by sulforhodamine B assay relative to control; settings: IGROV-1, 48 h, read-out: Activity

SMILES | growth at 1 µM (M14) | growth at 0.01 µM (NCI-H460 [1]) | growth at 0.1 µM (HOP-92) | growth at 0.01 µM (SK-OV-3) | growth at 1 µM (NCI-H460 [2]) | growth at 100 µM (OVCAR-8) | growth at 100 µM (HL-60(TB)) | growth at 1 µM (SNB-75) | growth at 10 µM (RXF 393) | growth at 1 µM (NCI-H226 [3]) | growth at 1 µM (MOLT-4) | growth at 10 µM (HCT-15) | growth at 10 µM (SK-MEL-2) | growth at 0.01 µM (SF-539 [4]) | growth at 10 µM (LOX IMVI) | growth at 0.01 µM (UACC-62 [5]) | growth at 30 µM (SF-539 [6]) | growth at 30 µM (T47D) | growth at 0.3 µM (UO-31) | growth at 3 µM (NCI/ADR-RES) | other results
COc1cc2cc(Oc3ccc(NC(=O)Nc4ccc(Cl)c(Cl)c4)cc3)c(C)nc2cc1OC | 83% | 105% | 92% | 103% | 82% | -100% | -41% | 83% | 19% | 106% | 90% | 19% | -27% | 101% | 20% | 94% |  |  |  |  | 
COc1cc2cc(Oc3ccc(NC(=O)Nc4cc(C(F)(F)F)cc(C(F)(F)F)c4)cc3)c(C)nc2cc1OC | 50% | 105% | 90% | 91% | 49% | -43% | -56% | 75% | -44% | 88% | 55% | -91% | -51% | 92% | -84% | 90% |  |  |  |  | 
COc1cc2cc(Oc3ccc(NC(=O)Nc4ccc(Cl)c(C(F)(F)F)c4)cc3)c(C)nc2cc1OC |  |  |  |  |  |  |  |  |  |  |  |  |  |  |  |  | -49% | -30% | 105% | 8% | growth at 0.3 µM (UACC-257): 83%; growth at 0.003 µM (HOP-62 [7]): 99%; growth at 0.03 µM (TK-10): 91%; growth at 0.3 µM (MDA-MB-435): 91%; growth at 30 µM (COLO 205): -92%; growth at 0.3 µM (OVCAR-4): 94%; growth at 0.03 µM (SR): 92%; growth at 3 µM (NCI-H226 [8]): 11%; growth at 0.03 µM (HOP-62 [9]): 106%; growth at 0.3 µM (SNB-19): 96%; growth at 3 µM (UACC-62 [10]): 28%; growth at 3 µM (SF-295): -5%; growth at 0.003 µM (HT-29): 97%; growth at 0.003 µM (IGROV-1): 107%
Cc1nc2cc(O)c(O)cc2cc1Oc1ccc(NC(=O)Nc2ccc(Cl)c(Cl)c2)cc1 |  |  |  |  |  |  |  |  |  |  |  |  |  |  |  |  | -19% | 10% | 102% | 85% | growth at 0.3 µM (UACC-257): 92%; growth at 0.003 µM (HOP-62 [7]): 108%; growth at 0.03 µM (TK-10): 104%; growth at 0.3 µM (MDA-MB-435): 90%; growth at 30 µM (COLO 205): 16%; growth at 0.3 µM (OVCAR-4): 94%; growth at 0.03 µM (SR): 99%; growth at 3 µM (NCI-H226 [8]): 102%; growth at 0.03 µM (HOP-62 [9]): 105%; growth at 0.3 µM (SNB-19): 117%; growth at 3 µM (UACC-62 [10]): 91%; growth at 3 µM (SF-295): 98%; growth at 0.003 µM (HT-29): 103%; growth at 0.003 µM (IGROV-1): 104%
